According to patent US20090181408A1 (AMANO ENZYME INC., priority 2006, published 2009):
Values joined by “and” are separate entries in the source; they are usually repeats but may differ in a detail not shown here. Identical values can stand only once.

Columns and labels:
[1] = test system: FAD-GDH derived from Aspergillus oryzae IAM2603; assay: Substrate specificity 2, relative activity (PMS/DCIP); format: biochemical; details: activity with D-glucose assumed 100%; dialyzed culture filtrate; MOPS pH 7.0, 25° C.
Procedure: (§1) 10 mL of each culture filtrate derived from Aspergillus oryzae BB-56, IAM2603, IAM2628, IAM2683, IAM2736, IAM2706, or NBRC30113 was placed in a dialysis membrane 36 and dialyzed in 10 mM KH2PO4—NaOH at 4° C. over night.
(§2) By measuring the decrease of DCIP by the reduction reaction in the absorbance at 600 nm, the FAD-GDH activity was measured. The activity with respect to each substrate was calculated when the activity with respect to D-glucose as a substrate was assumed to be 100% (Table 4). From the results, the substrate specificities of FAD-GDH derived from Aspergillus oryzae BB-56, IAM2603, IAM2628, IAM2683, IAM2736, IAM2706, or NBRC30113 are the same as each other.

[2] = test system: FAD-GDH derived from Aspergillus oryzae IAM2683; assay: as above; format: biochemical; details: activity with D-glucose assumed 100%; dialyzed culture filtrate; MOPS pH 7.0, 25° C.
Procedure: as §1, §2

[3] = test system: FAD-GDH derived from Aspergillus oryzae IAM2736; assay: as above; format: biochemical; details: activity with D-glucose assumed 100%; dialyzed culture filtrate; MOPS pH 7.0, 25° C.
Procedure: as §1, §2

[4] = test system: FAD-GDH derived from Aspergillus oryzae BB-56; assay: as above; format: biochemical; details: activity with D-glucose assumed 100%; dialyzed culture filtrate; MOPS pH 7.0, 25° C.
Procedure: as §1, §2

[5] = test system: FAD-GDH derived from Aspergillus oryzae IAM2628; assay: as above; format: biochemical; details: activity with D-glucose assumed 100%; dialyzed culture filtrate; MOPS pH 7.0, 25° C.
Procedure: as §1, §2

[6] = test system: FAD-GDH derived from Aspergillus oryzae NBRC30113; assay: as above; format: biochemical; details: activity with D-glucose assumed 100%; dialyzed culture filtrate; MOPS pH 7.0, 25° C.
Procedure: as §1, §2

[7] = test system: FAD-GDH derived from Aspergillus oryzae IAM2706; assay: as above; format: biochemical; details: activity with D-glucose assumed 100%; dialyzed culture filtrate; MOPS pH 7.0, 25° C.
Procedure: as §1, §2

[8] = PMS/NTB, pH 6.5, 37° C.
Procedure: 2.55 mL of 50 mM PIPES-NaOH buffer (pH 6.5) containing 0.22% (w/v) Triton X-100, 0.1 mL of 1M D-glucose solution, 0.2 mL of 3 mM PMS solution, and 0.1 mL of 6.6 mM NTB solution were mixed with each other and kept at 37° C. for 5 minutes. […] Diformazan produced by the enzyme reaction was measured in the absorbance in 570 nm and the amount Diformazan produced per minute was measured. Thus, the enzymatic activity was measured.

[9] = phosphate buffer pH 7.0, 37° C.; for GO activity: 500 nm
Procedure: D-glucose+O2→D-glucono-δ-lactone+H2O2 Reaction 1
H2O2+4-aminoantipyrine+phenol→quinonimine dye+4H2O Reaction 2
H2O2 produced with GO in the reaction 1 is used in a production reaction of quinonimine dye with peroxidase in the reaction 2. By measuring the quinonimine dye in the absorbance in 500 nm, the GO activity was measured. The amount of enzyme oxidizing 1 μmole of D-glucose for one minute in the reaction condition at 37° C. is defined as one unit of the GO activity.
2.0 mL of phenol solution (0.1M phosphate buffer (pH 7.0) containing 0.152% phenol and 0.152% Triton X-100), 0.5 mL of 0.555 mol/L D-glucose solution, 0.5 mL of 25 U/mL peroxidase (AMANO ENZYME INC) solution, and 0.1 mL of 4 mg/mL 4-aminoantipyrine solution were mixed with each other and kept at 37° C. for 5 minutes. […] Two minutes and 5 minutes after the reaction was started, the absorbance in 500 nm was measured. Furthermore, as enzyme blank, 0.1M phosphate buffer (pH 7.0) was added instead of an enzyme solution, similarly the absorbance was measured. The GO activity was calculated from the following calculation formula.
In the formula, “3” denotes a reaction time, “12.88” denotes molecular absorption constant (mM) of the quinonimine dye, “1/2” denotes a coefficient based on the fact that 1 mole of quinonimine dye is produced from 2 mole of H2O2, “3.2” denotes a final liquid amount of the reaction solution, “0.1” is sample amount (mL), and “Dm” is dilution ratio, respectively.

[10] = Investigation of temperature for stability; format: physicochemical
Procedure: Herein, the optimum pH is a value measured in, for example, Mcllvaine buffer as mentioned below in the Examples. The optimum temperature is also a value measured in, for example, PIPES-NaOH buffer (pH 6.5). Furthermore, the enzyme maintains 80% or more of the activity when it is treated under a certain pH condition at 37° C. for 30 minutes, the enzyme can be “stable” in the pH condition. […] The Km value and the isoelectric point can be measured and evaluated by the method described below in the Examples (columns 8 and 6).
Purified FAD-GDH was diluted to 1 U/mL with 50 mM PIPES-NaOH buffer (pH 6.5) containing 1 mM calcium chloride, 0.1% (w/v) Triton X-100, and 0.1% (w/v) bovine serum albumin and treated at each designated temperature (5, 30, 40, 50, or 60° C.) for 20 minutes. Each treated solution was cooled in ice and then it was diluted with 50 mM PIPES-NaOH buffer (pH 6.5) containing 1 mM calcium chloride, 0.1% (w/v) Triton X-100, 0.1% (w/v) bovine serum albumin, and the FAD-GDH activity was measured in the above-mentioned method 1. As a control, FAD-GDH of the not thermally treated enzyme was measured. […]

[11] = Measurement of isoelectric point (glycerol density gradient electrophoresis); format: physicochemical
Procedure: This dialysis sample was subjected to glycerol density gradient electrophoresis. A carrier ampholyte having a column volume of 110 mL (Pharmalyte™ 3-10 for IEF (Amersham Biosciences AB), average final concentration of 1%) was used to allow an electric current to pass at 5° C. at a constant voltage of 400V for 48 hours. After passing current, samples were recovered at the flow rate of about 2 mL/min (one fraction was made to be 1.5 mL). When pH and FAD-GDH activity of each fraction were measured, pI of FAD-GDH derived from Aspergillus oryzae BB-56 was 6.4 (FIG. 9).

[12] = Investigation of pH for stability; format: physicochemical; details: pH 3.0 to pH 7.0, 37° C., 30 minutes
Procedure: Herein, the optimum pH is a value measured in, for example, Mcllvaine buffer as mentioned below in the Examples. The optimum temperature is also a value measured in, for example, PIPES-NaOH buffer (pH 6.5). Furthermore, the enzyme maintains 80% or more of the activity when it is treated under a certain pH condition at 37° C. for 30 minutes, the enzyme can be “stable” in the pH condition. Similarly, when the activity of the enzyme is not substantially deteriorated (that is to say, about 100% of the activity is maintained) after it is treated under a certain temperature condition in a suitable buffer solution (for example, PIPES-NaOH buffer, pH 6.5) for 20 minutes, the enzyme can be “stable” in the temperature condition. The Km value and the isoelectric point can be measured and evaluated by the method described below in the Examples (columns 8 and 6).
Each treatment solution was appropriately diluted with 0.2M KH2PO4—NaOH buffer (pH 6.5) and the FAD-GDH activity was measured by the above-mentioned method 1. As a control, the activity of purified FAD-GDH, which was diluted with 0.1M KH2PO4—NaOH buffer (pH 6.5) and stored in ice, was also measured. As a result, FAD-GDH maintains 80% or more of the activity at least in the range from pH 3.0 to pH 7.0, showing that FAD-GDH is stable in the range from pH 3.0 to pH 7.0 (FIG. 7).

[13] = Investigation of optimum temperature; format: biochemical; details: PIPES-NaOH buffer pH 6.5, 30-65° C.
Procedure: Thus, the enzymatic activity was measured. […] (FIG. 6).

[14] = target: purified FAD-GDH (Aspergillus oryzae, UniProt A0A1S9DW10); assay: Substrate specificity 1 of purified FAD-GDH (PMS/NTB); format: biochemical, Aspergillus oryzae BB-56; details: reaction rate with respect to D-glucose assumed 100%, PIPES-NaOH pH 6.5, 37° C.
Procedure: Thus, the enzymatic activity was measured. The relative activity with respect to each substrate was calculated when the reaction rate with respect to D-glucose was assumed to be 100% (Table 3).

[15] = test system: purified FAD-GDH; assay: Inhibition test with 1,10-phenanthroline (DCIP/1-methoxy PMS); format: biochemical, Aspergillus oryzae
Procedure: The enzymatic activities were measured in the control group and the test group (group in which 1,10-phenanthroline was added) and both activities were compared with each other. Thereby, the inhibition effect of 1,10-phenanthroline on purified FAD-GDH was examined.
Subsequently, 0.05 mL of enzyme solution was added, the change of absorbance in 600 nm of DCIP (ΔABS/min) was measured, and the enzymatic activity was calculated by the following calculation formula.
In the above-mentioned measurement method, the enzymatic activities when 1,10-phenanthroline was added so that the final concentration became 1 mM, 5 mM, 10 mM, 25 mM, and 50 mM were measured, respectively.

[16] = substrate: OC[C@H]1OC(O)[C@H](O)[C@@H](O)[C@@H]1O; assay: Measurement of Michaelis-Menten Km constant (Lineweaver-Burk plot); format: biochemical, Aspergillus oryzae BB-56; details: other: purified FAD-GDH, PIPES-NaOH pH 6.5, 37° C.

Molecule | relative activity, IAM2603 [1] | relative activity, IAM2683 [2] | relative activity, IAM2736 [3] | relative activity, BB-56 [4] | relative activity, IAM2628 [5] | relative activity, NBRC30113 [6] | relative activity, IAM2706 [7] | relative activity [14] | also measured
O=CC[C@@H](O)[C@H](O)[C@H](O)CO [2-deoxyglucose] | 29.0% | 32.7% | 31.3% | 35.1% | 34.2% | 35.3% | 33.9% | – | –
glucose oxidase [GO] | – | – | – | – | – | – | – | – | GDH activity [8]: 8.86 U/mL; GDH activity (in words) [8]: also has the GDH activity; GO activity [9]: 67.8 U/mL
flavin adenine dinucleotide-binding glucose dehydrogenase | – | – | – | – | – | – | – | – | activity maintained after thermal treatment ([10]; 40° C. or less, 20 minutes, pH 6.5): ~100%; temperature for stability ([10]; treated 20 minutes in PIPES-NaOH pH 6.5, stable = about 100% of activity maintained): ≤ 40 °C; GDH activity [8]: 119 U/mL; isoelectric point (pI) ([11]; listed as FAD-GDH): about 6.4; isoelectric point (pI) ([11]; listed as FAD-GDH derived from Aspergillus oryzae BB-56): 6.4; activity maintained after pH treatment [12]: ≥ 80%; optimum temperature [13]: about 60 °C; GO activity (in words) [9]: does not substantially have the GO activity; GO activity [9]: 0.0025 U/mL
O=C[C@H](O)[C@@H](O)[C@@H](O)[C@H](O)CO [galactose] | – | – | – | – | – | – | – | 0.349% | –
OC[C@H]1O[C@H](O[C@H]2[C@H](O)[C@@H](O)C(O)O[C@@H]2CO)[C@H](O)[C@@H](O)[C@@H]1O (mixture of isomers) [maltose] | 0% | 0% | 0% | 0% | 0% | 0% | 0% | 0.582% | –
O=C[C@H](O)[C@@H](O)[C@H](O)CO [xylose] | 16.1% | 17.3% | 14.6% | 17.6% | 16.4% | 17.6% | 16.1% | 22.7% | –
maltopentaose | – | – | – | – | – | – | – | 4.55% | –
maltotriose | – | – | – | – | – | – | – | 0.239% | –
c1cnc2c(c1)ccc1cccnc12 [1,10-phenanthroline] | – | – | – | – | – | – | – | – | Inhibition effect ([15]; final concentration of 1,10-phenanthroline 5 mM): 21%; Inhibition effect ([15]; final concentration of 1,10-phenanthroline 10 mM): 38%
maltohexaose | – | – | – | – | – | – | – | 0.479% | –
O=C(CO)[C@@H](O)[C@H](O)[C@H](O)CO [fructose] | 0% | 0% | 0% | 0% | 1.40% | 0% | 0% | – | –
purified FAD-GDH (Aspergillus oryzae) (protein) SPAGRAKNTTTYDYIVVGGGTSGLVVANRLSENPDVSVLLLEAGASVFNNPDVTNANGYGLAFGSAIDWQYQSINQSYAGGKQQVLRAGKALGGTSTINGMAYTRAEDVQIDVWQKLGNEGWTWKDLLPYYLKSENLTAPTSSQVAAGAAYNPAVNGKEGPLKVGWSGSLASGNLSVALNRTFQAAGVPWVEDVNGGKMRGFNIYPSTLDVDLNVREDAARAYYFPYDDRKNLHLLENTTANRLFWKNGSAEEAIADGVEITSADGKVTRVHAKKEVIISAGALRSPLILELSGVGNPTILKKNNITPRVDLPTVGENLQDQFNNGMAGEGYGVLAGASTVTYPSISDVFGNETDSIVASLRSQLSDYAAATVKVSNGHMKQEDLERLYQLQFDLIVKDKVPIAEILFHPGGGNAVSSEFWGLLPFARGNIHISSNDPTAPAAINPNYFMFEWDGKSQAGIAKYIRKILRSAPLNKLIAKETKPGLSEIPATAADEKWVEWLKANYRSNFHPVGTAAMMPRSIGGVVDNRLRVYGTSNVRVVDASVLPFQVCGHLVSTLYAVAERASDLIKEDAKSA | – | – | – | – | – | – | – | – | Km [16]: 8.2 mM and 8 mM
